According to ChEMBL document CHEMBL1201862, “PubChem BioAssay data set” (2004):
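Compound exposure: 48 hours, 5 concentrations, 96-well plates. Here, GI50 denotes the concentration required for 50% inhibition of growth.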 Activity calls are given as the source filed them. No stated cut-off is given here; in the data, active = GI50 up to about 1.1 µM and inactive = higher.

How the values were obtained:
Test in all cases: growth of human tumour cells (NCI), 48 h
NCI-H522 = system: NCI-H522
OVCAR-4 = system: OVCAR-4
OVCAR-8 = system: OVCAR-8
K562 = system: K562
SN12C = system: SN12C
TK-10 = system: TK-10
UO-31 = system: UO-31
LOX IMVI = system: LOX IMVI
HT-29 = system: HT-29
SK-MEL-2 = system: SK-MEL-2
Malme-3M = system: Malme-3M
SNB-75 = system: SNB-75
Hs-578T = system: Hs-578T
786-0 = system: 786-0
SK-MEL-5 = system: SK-MEL-5
SF-295 = system: SF-295
HOP-92 = system: HOP-92
EKVX = system: EKVX
CAKI-1 = system: CAKI-1
SF-539 = system: SF-539

Row | Compound | GI50 (NCI-H522) | GI50 (OVCAR-4) | GI50 (OVCAR-8) | GI50 (K562) | GI50 (SN12C) | GI50 (TK-10) | GI50 (UO-31) | GI50 (LOX IMVI) | GI50 (HT-29) | GI50 (SK-MEL-2) | GI50 (Malme-3M) | GI50 (SNB-75) | GI50 (Hs-578T) | GI50 (786-0) | GI50 (SK-MEL-5) | GI50 (SF-295) | GI50 (HOP-92) | GI50 (EKVX) | GI50 (CAKI-1) | GI50 (SF-539)
1 | CN(C(=O)c1ccc(Cl)cc1)C(=S)N1CCN(c2ccccc2)CC1 | 51.5 µM (inactive) | > 100 µM (inactive) | > 100 µM (inactive) | 42.1 µM (inactive) | > 100 µM (inactive) | > 100 µM (inactive) | 20.1 µM (inactive) | > 100 µM (inactive) | 77.6 µM (inactive) | > 100 µM (inactive) | > 100 µM (inactive) | 46.7 µM (inactive) | 19 µM (inactive) | > 100 µM (inactive) | 35.5 µM (inactive) | > 100 µM (inactive) | 89.5 µM (inactive) | – | – | –
2 | CCCOC(=O)C1C2CCC(O2)C1C(=O)O (centres undefined) | > 100 µM (inactive) | > 100 µM (inactive) | > 100 µM (inactive) | > 100 µM (inactive) | > 100 µM (inactive) | > 100 µM (inactive) | > 100 µM (inactive) | > 100 µM (inactive) | > 100 µM (inactive) | > 100 µM (inactive) | > 100 µM (inactive) | 36.3 µM (inactive) | > 100 µM (inactive) | > 100 µM (inactive) | > 100 µM (inactive) | > 100 µM (inactive) | – | > 100 µM (inactive) | > 100 µM (inactive) | –
3 | FC(F)(F)c1nc2cc(SSc3cc4nc(C(F)(F)F)[nH]c4cc3Cl)c(Cl)cc2[nH]1 | 66.4 µM (inactive) | 92.5 µM (inactive) | > 100 µM (inactive) | > 100 µM (inactive) | > 100 µM (inactive) | > 100 µM (inactive) | – | > 100 µM (inactive) | > 100 µM (inactive) | > 100 µM (inactive) | 82.8 µM (inactive) | – | > 100 µM (inactive) | > 100 µM (inactive) | 65.3 µM (inactive) | > 100 µM (inactive) | – | > 100 µM (inactive) | > 100 µM (inactive) | > 100 µM (inactive)
4 | CCCCCCCC(=O)NS(=O)(=O)c1ccccc1 | 73.3 µM (inactive) | > 100 µM (inactive) | > 100 µM (inactive) | > 100 µM (inactive) | – | > 100 µM (inactive) | > 100 µM (inactive) | > 100 µM (inactive) | > 100 µM (inactive) | > 100 µM (inactive) | > 100 µM (inactive) | > 100 µM (inactive) | > 100 µM (inactive) | > 100 µM (inactive) | > 100 µM (inactive) | > 100 µM (inactive) | – | > 100 µM (inactive) | > 100 µM (inactive) | > 100 µM (inactive)
5 | CC(=O)N1C(Nc2cccc3nc(C)ccc23)CCN1c1ccccc1 (centres undefined) | > 10 µM (inactive) | > 10 µM (inactive) | > 10 µM (inactive) | > 10 µM (inactive) | > 10 µM (inactive) | > 10 µM (inactive) | > 10 µM (inactive) | > 10 µM (inactive) | > 10 µM (inactive) | > 10 µM (inactive) | > 10 µM (inactive) | > 10 µM (inactive) | > 10 µM (inactive) | > 10 µM (inactive) | > 10 µM (inactive) | > 10 µM (inactive) | – | > 10 µM (inactive) | > 10 µM (inactive) | > 10 µM (inactive)
6 | CCN(CC)C(=O)N1CN(c2ccccc2)C2(CCN(CCCC3(c4ccc(F)cc4)OCCO3)CC2)C1=O | 13.7 µM (inactive) | 22.4 µM (inactive) | 19.8 µM (inactive) | – | 16.9 µM (inactive) | 17.5 µM (inactive) | 18.4 µM (inactive) | 12.7 µM (inactive) | – | 14.8 µM (inactive) | 19.1 µM (inactive) | 19.7 µM (inactive) | 16.3 µM (inactive) | 18.6 µM (inactive) | 12.9 µM (inactive) | 25.4 µM (inactive) | – | 25.9 µM (inactive) | > 100 µM (inactive) | 16.6 µM (inactive)
7 | CCC1CCN=C(Cn2cc(C)c(=O)[nH]c2=O)N1 (centres undefined) | > 100 µM (inactive) | – | > 100 µM (inactive) | – | > 100 µM (inactive) | > 100 µM (inactive) | > 100 µM (inactive) | > 100 µM (inactive) | > 100 µM (inactive) | > 100 µM (inactive) | > 100 µM (inactive) | > 100 µM (inactive) | > 100 µM (inactive) | > 100 µM (inactive) | > 100 µM (inactive) | > 100 µM (inactive) | > 100 µM (inactive) | > 100 µM (inactive) | – | –
8 | CN1C(=O)c2ccccc2OC12C=Cc1ccc(O)cc1O2 (centres undefined) | 20.4 µM (inactive) | 28.1 µM (inactive) | 12.7 µM (inactive) | 24.1 µM (inactive) | 26.7 µM (inactive) | 26.8 µM (inactive) | 18.7 µM (inactive) | 9.62 µM (inactive) | 22.3 µM (inactive) | 20.6 µM (inactive) | – | 22.8 µM (inactive) | 19.3 µM (inactive) | 31.6 µM (inactive) | 17.3 µM (inactive) | 29.9 µM (inactive) | 27.2 µM (inactive) | 18.6 µM (inactive) | 16.1 µM (inactive) | –
9 | Cc1cn(CC2=NCCN2)c(=O)[nH]c1=O | > 100 µM (inactive) | > 100 µM (inactive) | > 100 µM (inactive) | > 100 µM (inactive) | > 100 µM (inactive) | > 100 µM (inactive) | > 100 µM (inactive) | > 100 µM (inactive) | > 100 µM (inactive) | > 100 µM (inactive) | > 100 µM (inactive) | > 100 µM (inactive) | > 100 µM (inactive) | > 100 µM (inactive) | > 100 µM (inactive) | > 100 µM (inactive) | > 100 µM (inactive) | > 100 µM (inactive) | > 100 µM (inactive) | –
10 | CCNc1cc2c(cc1O)CC[C@@H]1[C@@H]2CC[C@]2(C)[C@@H](O)CC[C@@H]12 | 2.04 µM (inactive) | 8.26 µM (inactive) | 11.7 µM (inactive) | 0.711 µM (active) | 15.3 µM (inactive) | 19.5 µM (inactive) | 6.75 µM (inactive) | 2.98 µM (inactive) | 15.8 µM (inactive) | – | 3.75 µM (inactive) | 0.272 µM (active) | 3.62 µM (inactive) | 9.91 µM (inactive) | 0.394 µM (active) | 0.912 µM (active) | 10.3 µM (inactive) | 16.3 µM (inactive) | 13.5 µM (inactive) | –
11 | CCCC/C=C1\CCC(CN2CCCCC2)C1=O (centres undefined) | – | 30.5 µM (inactive) | 12.8 µM (inactive) | 7.82 µM (inactive) | 11.5 µM (inactive) | 12.4 µM (inactive) | 32.8 µM (inactive) | > 28.9 µM (inactive) | 10.9 µM (inactive) | > 39 µM (inactive) | 8.55 µM (inactive) | > 100 µM (inactive) | > 100 µM (inactive) | 6.31 µM (inactive) | 26.6 µM (inactive) | 30.5 µM (inactive) | 10.9 µM (inactive) | 26.1 µM (inactive) | 9.48 µM (inactive) | 19 µM (inactive)
12 | O=S(=O)(O)c1cc(/N=N/c2c(O)ccc3ccccc23)ccc1/C=C/c1ccc(/N=N/c2c(O)ccc3ccccc23)cc1S(=O)(=O)O | > 100 µM (inactive) | > 100 µM (inactive) | > 100 µM (inactive) | > 100 µM (inactive) | > 100 µM (inactive) | > 100 µM (inactive) | > 100 µM (inactive) | – | > 100 µM (inactive) | > 100 µM (inactive) | 26.9 µM (inactive) | > 100 µM (inactive) | > 100 µM (inactive) | > 100 µM (inactive) | > 100 µM (inactive) | > 100 µM (inactive) | > 100 µM (inactive) | > 100 µM (inactive) | > 100 µM (inactive) | –
13 | CCCCc1ccc(-n2sc3ncc([N+](=O)[O-])cc3c2=O)cc1 | 1.2 µM (inactive) | 6.58 µM (inactive) | 22.9 µM (inactive) | – | 17.3 µM (inactive) | 21.1 µM (inactive) | 12.5 µM (inactive) | 13.3 µM (inactive) | 13.8 µM (inactive) | 1.57 µM (inactive) | 7.8 µM (inactive) | 4.22 µM (inactive) | 4.93 µM (inactive) | 15 µM (inactive) | 14.6 µM (inactive) | 10.5 µM (inactive) | – | 13.6 µM (inactive) | 13.4 µM (inactive) | 15.3 µM (inactive)
14 | Cc1cc(Oc2cnc(=O)[nH]c2)cs1 | > 100 µM (inactive) | – | > 100 µM (inactive) | > 100 µM (inactive) | > 100 µM (inactive) | > 100 µM (inactive) | > 100 µM (inactive) | > 100 µM (inactive) | > 100 µM (inactive) | > 100 µM (inactive) | > 100 µM (inactive) | > 100 µM (inactive) | > 100 µM (inactive) | > 100 µM (inactive) | > 100 µM (inactive) | > 100 µM (inactive) | – | > 100 µM (inactive) | > 100 µM (inactive) | > 100 µM (inactive)
15 | COc1ccc2c(C)c(Oc3c(Cl)c(Cl)c(O)c(C#N)c3C#N)oc2c1 | > 100 µM (inactive) | > 100 µM (inactive) | > 100 µM (inactive) | > 100 µM (inactive) | > 100 µM (inactive) | > 100 µM (inactive) | > 100 µM (inactive) | > 100 µM (inactive) | > 100 µM (inactive) | > 100 µM (inactive) | > 100 µM (inactive) | > 100 µM (inactive) | > 100 µM (inactive) | > 100 µM (inactive) | > 100 µM (inactive) | > 100 µM (inactive) | – | > 100 µM (inactive) | > 100 µM (inactive) | > 100 µM (inactive)
